Data on 23 compounds can be found in patent US20250179000A1 (Sanford Burnham Prebys Medical Discovery Institute, priority 2021, published 2025).

For assay [1], the target named is Human mGlu2 (Homo sapiens, UniProt Q14416). The experiment in a line: mGlu receptor in vitro assay, human mGlu2. It counts as cell-based.
In assay [2] the target is Human mGlu3 (Homo sapiens, UniProt Q14832). The assay is described as follows: mGlu receptor in vitro assay, human mGlu3. It is filed as cell-based. The procedure:
Human Embryonic Kidney (HEK-293) cell lines co-expressing rat mGlu receptors 2, 3, 4, 6, 7 or 8 and G protein-coupled inwardly-rectifying potassium (GIRK) channels were grown in Growth Media containing 45% DMEM, 45% F-12, 10% FBS, 20 mM HEPES, 2 mM L-glutamine, antibiotic/antimycotic, non-essential amino acids, 700 μg/mL G418, and 0.6 μg/ml puromycin at 37° C. in the presence of 5% CO2. […] All cell culture reagents were purchased from Invitrogen Corp. (Carlsbad, CA) unless otherwise noted. Calcium assays were used to assess activity of compounds at mGlu1 and mGlu5, as previously described in Engers et al (J. Med. Chem. 2009, 52, 4115-4118). Calcium assays at mGlu3 were performed as described for mGlu5 with the exception that TREx293 mGlu3 Gα15 cells were treated with tetracycline at 20 ng/mL for 20 h prior to assay.
Briefly, cells were plated into 384-well, black-walled, clear-bottomed poly-D-lysine-coated plates at a density of 15,000 cells/20 μL/well in DMEM containing 10% dialyzed FBS, 20 mM HEPES, and 100 units/mL penicillin/streptomycin (assay media). Plated cells were incubated overnight at 37° C. in the presence of 5% CO2. The following day, the medium was exchanged from the cells to assay buffer [Hanks' balanced salt solution (Invitrogen) containing 20 mM HEPES, pH 7.3] using an ELX405 microplate washer (BioTek), leaving 20 μL/well, followed by the addition of 20 μL/well FluoZin2-AM (330 nM final concentration) indicator dye (Invitrogen; prepared as a stock in DMSO and mixed in a 1:1 ratio with Pluronic acid F-127) in assay buffer. Cells were incubated for 1 h at room temperature, and the dye exchanged to assay buffer using an ELX405, leaving 20 μL/well. Test compounds were diluted to 2 times their final desired concentration in assay buffer (0.3% DMSO final concentration). Agonists were diluted in thallium buffer [125 mM sodium bicarbonate (added fresh the morning of the experiment), 1 mM magnesium sulfate, 1.8 mM calcium sulfate, 5 mM glucose, 12 mM thallium sulfate, and 10 mM HEPES, pH 7.3] at 5 times the final concentration to be assayed. Cell plates and compound plates were loaded onto a kinetic imaging plate reader (FDSS 6000 or 7000; Hamamatsu Corporation, Bridgewater, NJ). Appropriate baseline readings were taken (10 images at 1 Hz; excitation, 470±20 nm; emission, 540±30 nm) and test compounds were added in a 20 μL volume and incubated for approximately 2.5 min before the addition of 10 μL of thallium buffer with or without agonist. After the addition of agonist, data were collected for approximately an additional 2.5 min. Data were analyzed using Excel (Microsoft Corp, Redmond, WA). The slope of the fluorescence increase beginning 5 s after thallium/agonist addition and ending 15 s after thallium/agonist addition was calculated, corrected to vehicle and maximal agonist control slope values, and plotted in using either XLfit (ID Business Solutions Ltd) or Prism software (GraphPad Software, San Diego, CA) to generate concentration-response curves. Potencies were calculated from fits using a four-point parameter logistic equation. For concentration-response curve experiments, compounds were serially diluted 1:3 into 10-point concentration response curves and were transferred to daughter plates using an Echo acoustic plate reformatter (Labcyte, Sunnyvale, CA). Test compounds were applied and followed by EC20 concentrations of glutamate.

Chain of Human mGlu3 (Q14832 23-879): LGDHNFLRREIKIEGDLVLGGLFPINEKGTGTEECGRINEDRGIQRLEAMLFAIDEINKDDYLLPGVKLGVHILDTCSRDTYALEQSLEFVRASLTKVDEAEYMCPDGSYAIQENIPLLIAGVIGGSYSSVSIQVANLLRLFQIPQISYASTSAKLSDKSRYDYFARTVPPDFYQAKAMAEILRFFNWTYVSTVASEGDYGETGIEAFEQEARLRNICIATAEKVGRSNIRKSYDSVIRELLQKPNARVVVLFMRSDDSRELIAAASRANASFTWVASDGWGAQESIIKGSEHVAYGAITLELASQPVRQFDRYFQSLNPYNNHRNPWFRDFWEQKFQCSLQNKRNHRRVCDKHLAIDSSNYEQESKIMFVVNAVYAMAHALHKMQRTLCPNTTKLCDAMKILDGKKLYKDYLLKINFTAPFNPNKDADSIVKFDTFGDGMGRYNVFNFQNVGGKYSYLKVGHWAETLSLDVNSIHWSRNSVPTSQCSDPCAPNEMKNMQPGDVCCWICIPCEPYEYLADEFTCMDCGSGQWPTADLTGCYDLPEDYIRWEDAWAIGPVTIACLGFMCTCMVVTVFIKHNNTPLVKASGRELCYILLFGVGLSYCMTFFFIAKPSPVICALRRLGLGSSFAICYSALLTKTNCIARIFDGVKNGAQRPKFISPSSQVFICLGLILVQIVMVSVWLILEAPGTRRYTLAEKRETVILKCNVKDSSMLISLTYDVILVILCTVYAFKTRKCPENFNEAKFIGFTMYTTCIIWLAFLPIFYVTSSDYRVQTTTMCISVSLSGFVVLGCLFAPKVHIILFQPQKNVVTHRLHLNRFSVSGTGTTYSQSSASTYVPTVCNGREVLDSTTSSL
Chain of Human mGlu2 (Q14416 19-872): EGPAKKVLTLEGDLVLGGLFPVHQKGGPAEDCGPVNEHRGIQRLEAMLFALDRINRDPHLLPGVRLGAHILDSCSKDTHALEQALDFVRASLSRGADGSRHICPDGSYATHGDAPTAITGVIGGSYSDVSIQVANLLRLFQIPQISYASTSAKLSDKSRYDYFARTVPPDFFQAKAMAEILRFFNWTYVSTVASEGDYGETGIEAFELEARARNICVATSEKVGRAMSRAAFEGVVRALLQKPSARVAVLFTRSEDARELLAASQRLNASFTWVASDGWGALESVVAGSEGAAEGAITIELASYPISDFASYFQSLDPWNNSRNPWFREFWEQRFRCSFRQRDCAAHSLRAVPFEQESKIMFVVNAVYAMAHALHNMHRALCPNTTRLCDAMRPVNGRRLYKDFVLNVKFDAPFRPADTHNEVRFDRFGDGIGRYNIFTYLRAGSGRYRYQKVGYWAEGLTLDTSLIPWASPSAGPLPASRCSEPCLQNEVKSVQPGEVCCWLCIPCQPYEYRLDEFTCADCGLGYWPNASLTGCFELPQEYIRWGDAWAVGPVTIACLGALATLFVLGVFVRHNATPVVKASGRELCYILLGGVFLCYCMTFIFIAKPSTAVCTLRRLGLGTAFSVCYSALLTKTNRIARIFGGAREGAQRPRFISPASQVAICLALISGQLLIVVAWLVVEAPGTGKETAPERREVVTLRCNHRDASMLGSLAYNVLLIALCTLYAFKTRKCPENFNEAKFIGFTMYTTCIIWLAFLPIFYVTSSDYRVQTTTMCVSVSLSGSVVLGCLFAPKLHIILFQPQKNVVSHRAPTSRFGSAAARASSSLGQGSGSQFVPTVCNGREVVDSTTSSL

Turning to `Cc1c(OCc2cnc(-c3cccc(O)c3)cn2)ccc(C(=O)CC(C)(C)C)c1O` [compound 145, 1-(2-Hydroxy-4-{[5-(3-hydroxyphenyl)pyrazin-2-yl]methoxy}-3-methylphenyl)-3,3-dimethylbutan-1-one], the EC50 in assay [1] and in assay [2] was > 10000 nM in each case.
As for `COc1ccc(C(=O)O)c(-c2cnc(COc3ccc(C#CCO)c(C)c3C)cn2)c1` [compound 150], the EC50 (in general, the concentration that produces a half-maximal response) was > 10000 nM in assay [1] and > 30000 nM in assay [2].
For `Cc1c(OCc2cnc(-c3cncc(C(=O)O)c3)cn2)ccc(C(=O)CC(C)(C)C)c1O` [compound 148, 5-(5-((4-(3,3-Dimethylbutanoyl)-3-hydroxy-2-methylphenoxy)methyl)pyrazin-2-yl)nicotinic acid] the same measures were > 10000 nM and > 30000 nM.
For `Cc1c(OCc2cnc(-c3cc(F)cc(C(=O)O)c3)cn2)ccc(C(=O)CC(C)(C)C)c1O` [compound 139, 3-(5-((4-(3,3-Dimethylbutanoyl)-3-hydroxy-2-methylphenoxy)methyl)pyrazin-2-yl)-5-fluorobenzoic acid], the EC50 worked out at 1750 nM in assay [1] and 1080 nM in assay [2].
In the case of `COc1c(C(=O)O)cccc1-c1ccc(COc2ccc(C(=O)CC(C)(C)C)c(O)c2C)nc1` [compound 152, 3-(6-((4-(3,3-Dimethylbutanoyl)-3-hydroxy-2-methylphenoxy)methyl)pyridin-3-yl)-2-methoxybenzoic acid], the EC50 in assay [1] worked out at 130 nM; in assay [2], 74 nM.
On the same counts, the results for `COc1c(C(=O)O)cccc1-c1cnc(COc2ccc(C(=O)CC(C)(C)C)c(O)c2C)nc1` [compound 159, 3-(2-((4-(3,3-Dimethylbutanoyl)-3-hydroxy-2-methylphenoxy)methyl)pyrimidin-5-yl)-2-methoxybenzoic acid] are 44 nM and 85 nM.
Turning to `COc1ccccc1C(=O)c1ccc(OCc2cnc(-c3cccc(C(=O)O)c3)cn2)c(C)c1O` [compound 73, 3-(5-((3-Hydroxy-4-(2-methoxybenzoyl)-2-methylphenoxy)methyl)pyrazin-2-yl)benzoic acid], the values for the EC50 in assay [1] and in assay [2] were 2030 nM and 685 nM, respectively.
On the same counts, the results for `Cc1c(C(=O)O)cccc1-c1noc(COc2ccc(C(=O)CC(C)(C)C)c(O)c2C)n1` [compound 157, 3-(5-((4-(3,3-Dimethylbutanoyl)-3-hydroxy-2-methylphenoxy)methyl)-1,2,4-oxadiazol-3-yl)-2-methylbenzoic acid] are 48 nM and 148 nM.
Regarding `COc1c(C(=O)O)cccc1-c1ccc(COc2ccc(C(=O)CC(C)(C)C)c(O)c2C)nn1` [compound 154, 3-(6-((4-(3,3-Dimethylbutanoyl)-3-hydroxy-2-methylphenoxy)methyl)pyridazin-3-yl)-2-methoxybenzoic acid], the EC50 worked out at 281 nM in assay [1] and 184 nM in assay [2].
On to `COc1ccc(C(=O)O)c(-c2cnc(COc3ccc(C#CCOCC(O)CO)c(C)c3C)cn2)c1` (stereo not shown) [compound 151], for which the EC50 in assay [1] and in assay [2] was > 30000 nM throughout.
As to `COc1ccc(C(=O)O)cc1OCCCCCCCCCCOc1ccc(C(=O)CC(C)(C)C)c(O)c1C` [Example 28, 3-{10-[4-(3,3-Dimethylbutanoyl)-3-hydroxy-2-methylphenoxy]decyloxy}-4-methoxybenzoic acid], the concentration for a half-maximal effect (EC50) in assay [1] was determined as 415 nM; in assay [2] it was 995 nM.
For `COc1ccc(C(=O)c2ccc(OCCCCOc3cc(C(=O)O)ccc3OC)c(C)c2O)cc1` [compound 63, 3-(4-(3-Hydroxy-4-(4-methoxybenzoyl)-2-methylphenoxy)butoxy)-4-methoxybenzoic acid], the EC50 turned out to be 507 nM in assay [1] and 557 nM in assay [2].
On the same counts, the results for `COc1c(C(=O)O)cccc1-c1noc(COc2ccc(C(=O)CC(C)(C)C)c(O)c2C)n1` [compound 158, 3-(5-((4-(3,3-Dimethylbutanoyl)-3-hydroxy-2-methylphenoxy)methyl)-1,2,4-oxadiazol-3-yl)-2-methoxybenzoic acid] are 53 nM and 104 nM.
On the same counts, the results for `Cc1c(OCCCCSc2cccc(C(=O)O)c2)ccc(C(=O)CC(C)(C)C)c1O` [compound 80, 3-((4-(4-(3,3-Dimethylbutanoyl)-3-hydroxy-2-methylphenoxy)butyl)thio)benzoic acid] are 228 nM and 461 nM.
On the same counts, the results for `[2H]/C(=C(/[2H])C([2H])([2H])Oc1ccc(C(=O)CCC)c(O)c1C)C([2H])([2H])Oc1cccc(C(=O)O)c1C` [Example 58, (E)-3-((4-(4-Butyryl-3-hydroxy-2-methylphenoxy)but-2-en-1-yl-1,1,2,3,4,4-d6)oxy)-2-methylbenzoic acid] are 8 nM and 540 nM.
Turning to `Cc1c(OCc2nc(-c3cccc(C(=O)O)c3)no2)ccc(C(=O)C2CC2)c1O` [compound 77, 3-(5-((4-(Cyclopropanecarbonyl)-3-hydroxy-2-methylphenoxy)methyl)-1,2,4-oxadiazol-3-yl)benzoic acid], the EC50 in assay [1] is 119 nM; in assay [2] it was > 10000 nM.
As for `Cc1c(SCCCCSc2cccc(C(=O)O)c2)ccc(C(=O)CC(C)(C)C)c1O` [compound 82, 3-{4-[4-(3,3-Dimethylbutanoyl)-3-hydroxy-2-methylphenylthio]butylthio}benzoic acid], the EC50 in assay [1] was 423 nM; in assay [2] it was 3000 nM.
For `Cc1c(OCc2cnc(-c3ccc(C(=O)O)s3)cn2)ccc(C(=O)CC(C)(C)C)c1O` [compound 141, 5-(5-((4-(3,3-Dimethylbutanoyl)-3-hydroxy-2-methylphenoxy)methyl)pyrazin-2-yl)thiophene-2-carboxylic acid] the same measures were 547 nM and 603 nM.
As for `COc1c(C(=O)O)cccc1-c1ccc(COc2ccc(C(=O)CC(C)(C)C)c(O)c2C)cn1` [compound 153, 3-(5-((4-(3,3-Dimethylbutanoyl)-3-hydroxy-2-methylphenoxy)methyl)pyridin-2-yl)-2-methoxybenzoic acid], the EC50 is 69 nM in assay [1] and 133 nM in assay [2].
On the same counts, the results for `Cc1c(OCc2cnc(-c3ccc(C(=O)O)cc3Cl)cn2)ccc(C(=O)CC(C)(C)C)c1O` [compound 143, 3-Chloro-4-(5-((4-(3,3-Dimethylbutanoyl)-3-hydroxy-2-methylphenoxy)methyl)pyrazin-2-yl)benzoic acid] are 291 nM and 580 nM.
Consider `COc1ccc(C(=O)O)cc1-c1noc(COc2ccc(C(=O)CC(C)(C)C)c(O)c2C)n1` [compound 156, 3-(5-((4-(3,3-Dimethylbutanoyl)-3-hydroxy-2-methylphenoxy)methyl)-1,2,4-oxadiazol-3-yl)-4-methoxybenzoic acid], for which the EC50 turned out to be 78 nM in assay [1] and 117 nM in assay [2].
For `COc1cccc(C(=O)c2ccc(OCc3cccc(-c4cccc(C(=O)O)c4)c3)c(C)c2O)c1` [compound 62, 3′-((3-Hydroxy-4-(3-methoxybenzoyl)-2-methylphenoxy)methyl)-[1,1′-biphenyl]-3-carboxylic acid] the same measures were 1170 nM and 1600 nM.
On the same counts, the results for `COc1c(C(=O)O)cccc1-c1cnc(COc2ccc(C(=O)C3CC3)c(O)c2C)cn1` [compound 78, 3-(5-((4-(Cyclopropanecarbonyl)-3-hydroxy-2-methylphenoxy)methyl)pyrazin-2-yl)-2-methoxybenzoic acid] are 41 nM and 1930 nM.
